The values that follow come from US6835735B2, “4-(phenylamino)-[1,4]dioxano[2,3-g]quinazoline derivatives and process for preparing the same” (Korea Institute of Science and Technology, priority 2001, dated 2004).

pIC50: −log10 of the molar value. ≈ marks a conversion by molar mass, not a printed value. Where a name gives a salt, the structure may show the parent alone.

Assay [1] deals with T1, purified human EGFR kinase (Homo sapiens, UniProt P00533).
T1 construct: purchased Promega
In words: Inhibition of EGFR tyrosine kinase (P32-ATP, biotin-conjugated substrate). It counts as biochemical. The settings on record: purified human EGFR kinase, 50 μM ATP, 30° C., 10 min. The procedure: The test was accomplished in a 20 μl reaction volume using 0.1 unit per reaction of purified human EGFR kinase (Promega, U.S.A.) and 50 μM biotin-conjugated substrate for tyrosine kinase (Promega, U.S.A.) and, 50 μM P^32-γ-ATP (0.2 μCi) and 20 mM Tris-HCl (pH 7.5) were employed as an ATP and a reaction solution, respectively. The test was carried out at 30° C. for 10 min, and terminated by the addition of 10 μl of 30% phosphate solution. The half of the reaction product was spotted onto avidin-layered PVDF membrane, which was then washed with 20 mM Tris-HCl (pH 8.0) and 0.2N NaCl aqueous solution for more than 2 hours.

The next assay deals with A431 cancer cell. The assay can be described thus: Inhibition of cancer cell growth (sulforhodamine B). It counts as cell-based. As to conditions: for GI50: Homo sapiens, A-431, 48 h; for GI50 / A431 GI50: A431 cells, grown 2 days with compound, SRB staining; for inhibitory effect of cancer cell growth compared with standard material DP153035: A431, comparison drawn from Table 3. As for the experimental part: A431 cancer cell was cultivated at 37° C. under an environment of 5% (v/v) CO2 employing RPMI 1640 medium containing 10% (v/v) fetal calf serum. […] The above cells was grown again for 2 days, and then, fixed with formalin solution (Sigma Chem. Co., U.S.A.) and washed with water. After that, the cells was dried in the atmosphere, stained with 0.1% (v/v) sulforhodamine B solution (Sigma Chem. Co., U.S.A.) for 30 min and wash with 1% (v/v) acetic acid aqueous solution. Then, dye attached to cells was extracted with 0.1M Tris-HCl (pH 8.0) and the absorbances of the remaining culture were measured at 520 nm by the aid of microplate reader. And then, the concentration of the compound by which cell growth is 50% inhibited was represented as GI50(s: Table 3).
Background: The SRB assay estimates cell density from bound dye.

T1 sequence (P00533 25-1210): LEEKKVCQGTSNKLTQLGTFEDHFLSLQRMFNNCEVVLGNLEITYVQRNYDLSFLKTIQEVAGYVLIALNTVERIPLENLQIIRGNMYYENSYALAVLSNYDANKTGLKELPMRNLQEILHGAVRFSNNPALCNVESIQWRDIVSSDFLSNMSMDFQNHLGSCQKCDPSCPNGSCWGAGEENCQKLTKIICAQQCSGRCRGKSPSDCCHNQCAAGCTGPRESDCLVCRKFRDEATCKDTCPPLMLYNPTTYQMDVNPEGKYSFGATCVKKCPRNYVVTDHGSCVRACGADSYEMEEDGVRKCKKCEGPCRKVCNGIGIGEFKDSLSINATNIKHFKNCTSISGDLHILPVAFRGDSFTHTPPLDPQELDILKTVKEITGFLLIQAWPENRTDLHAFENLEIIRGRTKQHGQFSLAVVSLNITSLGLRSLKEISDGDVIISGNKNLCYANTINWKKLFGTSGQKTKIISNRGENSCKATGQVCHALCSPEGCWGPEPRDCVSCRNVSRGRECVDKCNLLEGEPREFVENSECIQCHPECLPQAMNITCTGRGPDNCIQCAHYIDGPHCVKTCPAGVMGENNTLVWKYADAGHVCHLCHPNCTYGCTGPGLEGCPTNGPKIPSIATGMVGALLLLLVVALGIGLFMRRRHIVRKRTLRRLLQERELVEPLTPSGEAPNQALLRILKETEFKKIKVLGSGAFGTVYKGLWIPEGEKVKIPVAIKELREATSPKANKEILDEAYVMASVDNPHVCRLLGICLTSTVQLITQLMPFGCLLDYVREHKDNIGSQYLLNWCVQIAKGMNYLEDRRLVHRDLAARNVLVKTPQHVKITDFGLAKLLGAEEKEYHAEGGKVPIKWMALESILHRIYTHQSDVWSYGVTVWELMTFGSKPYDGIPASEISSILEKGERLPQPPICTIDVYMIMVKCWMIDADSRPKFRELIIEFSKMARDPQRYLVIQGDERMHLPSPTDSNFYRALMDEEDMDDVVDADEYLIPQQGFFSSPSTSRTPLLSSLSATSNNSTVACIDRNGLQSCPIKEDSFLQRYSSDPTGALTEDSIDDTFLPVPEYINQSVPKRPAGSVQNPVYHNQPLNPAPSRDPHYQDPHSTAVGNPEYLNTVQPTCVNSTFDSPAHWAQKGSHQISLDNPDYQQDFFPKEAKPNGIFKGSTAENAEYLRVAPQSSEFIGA

For orientation: pIC50 means the negative decadic logarithm of the IC50, by convention in mol/L. Broadly, the GI50 is the concentration giving 50% growth inhibition. Compound `COC[C@H]1Oc2cc3ncnc(Nc4cccc(Cl)c4)c3cc2O[C@@H]1COC` [Example 46, (7,8-bismethoxymethyl[1,4]dioxano[2,3-g]quinazolin-4-yl)-(3-chlorophenyl)-amine] gave a negative-log IC50 (pIC50) in assay [1] below 6.60. Besides, the concentration for 50% growth inhibition (GI50) in the assay on A431 cancer cell stood at 2.37 µg/mL (≈ 5.9 µM).
With `OCCN(CCO)CC1COc2cc3ncnc(Nc4cccc(Br)c4)c3cc2O1` (centres unmarked) [Example 25], the negative logarithm of the IC50 (pIC50) in assay [1] is 7.00. In addition, the GI50 in the assay with A431 cancer cell amounted to 0.61 µg/mL (≈ 1.28 µM).
Compound `COCC1COc2cc3ncnc(Nc4cc(C)cc(C)c4)c3cc2O1` (centres unmarked) [Example 15, (3,5-dimethylphenyl)-(7-methoxymethyl-[1,4]-dioxano[2,3-g]quinazolin-4-yl)-amine] gave a negative-log IC50 (pIC50) in assay [1] below 6.55. Besides, in the assay on A431 cancer cell, the “inhibitory effect of cancer cell growth compared with standard material DP153035” value is on record as “better inhibitory effect of cancer cell growth than the standard material” and the concentration for 50% growth inhibition (GI50) amounted to 0.06 µg/mL (≈ 0.171 µM).
Compound `Brc1cccc(Nc2ncnc3cc4c(cc23)OC(CN2CCOCC2)CO4)c1` (centres unmarked) [Example 23, (3-bromophenyl)-[7-(morpholine-4-ylmethyl)-[1,4]dioxano[2,3-g]quinazolin-4-yl]-amine] gave a pIC50 in assay [1] of 7.20. For the same compound, in the assay with A431 cancer cell, the 50% growth inhibitory concentration (GI50) came out at 0.13 µg/mL (≈ 0.284 µM).
Regarding `CN1CCN(CC2COc3cc4ncnc(Nc5cccc(Br)c5)c4cc3O2)CC1` (centres unmarked) [Example 28, (3-bromophenyl)-[7-(4-methylpiperazin-1-yl)methyl-[1,4]dioxano[2,3-g]quinazolin-4-yl]amine], in assay [1], the pIC50 is 8.05. In addition, in the assay on A431 cancer cell, the “inhibitory effect of cancer cell growth compared with standard material DP153035” value is “better inhibitory effect of cancer cell growth than the standard material” and the GI50 was found to be 0.22 µg/mL (≈ 0.468 µM).
On to `C#Cc1cccc(Nc2ncnc3cc4c(cc23)O[C@H](COC)[C@@H](COC)O4)c1` [Example 48, (7,8-bismethoxymethyl[1,4]dioxano[2,3-g]quinazolin-4-yl)-[3-(ethynyl)phenyl]-amine], for which the pIC50 in assay [1] is below 6.59. The concentration for 50% growth inhibition (GI50) with A431 cancer cell was determined as 1.89 µg/mL (≈ 4.83 µM).
As to `CC(C)[C@H](CO)NCC1COc2cc3ncnc(Nc4cccc(Br)c4)c3cc2O1` (some centres unmarked) [Example 29], the pIC50 in assay [1] is below 6.68. Moreover, the GI50 in the assay with A431 cancer cell was determined as 1.9 µg/mL (≈ 4.01 µM).
In turn, `CN1CCN(CC2COc3cc4ncnc(Nc5cccc(Br)c5)c4cc3O2)CC1` (centres unmarked) [Example 37, (3-bromophenyl)-[7-(4-methylpiperazin-1-yl)methyl-[1,4]dioxano[2,3-g]quinazolin-4-yl]amine hydrochloride] gave a negative logarithm of the IC50 (pIC50) in assay [1] of 6.91. For the same compound, the “A431 GI50” value in the assay on A431 cancer cell (hydrochloride) was found to be 0.38 µg/mL.
For the compound `COC[C@H]1Oc2cc3ncnc(Nc4cccc(Br)c4)c3cc2O[C@@H]1COC` [Example 44, (7,8-bismethoxymethyl[1,4]dioxano[2,3-g]quinazolin-4-yl)-(3-bromophenyl)-amine], the negative-log IC50 (pIC50) in assay [1] was 7.13. For the same compound, the GI50 with A431 cancer cell stood at 2.91 µg/mL (≈ 6.52 µM).
Compound `OCCNCC1COc2cc3ncnc(Nc4cccc(Br)c4)c3cc2O1` (centres unmarked) [Example 27, 2-[4-(3-bromophenylamine)-[1,4]dioxano[2,3-g]quinazolin-7-ylmethyl]amino-ethanol] gave a pIC50 in assay [1] of 7.55. The “A431 GI50” value in the assay on A431 cancer cell amounted to 0.22 µg/mL.
In assay [1], `Ic1cccc(Nc2ncnc3cc4c(cc23)OC(CN2CCOCC2)CO4)c1` (centres unmarked) [Example 22, (3-iodophenyl)-[7-(morpholine-4-ylmethyl)-[1,4]dioxano[2,3-g]quinazolin-4-yl]-amine] had a negative logarithm of the IC50 (pIC50) of 7.60. In the assay on A431 cancer cell, the “inhibitory effect of cancer cell growth compared with standard material DP153035” value was “better inhibitory effect of cancer cell growth than the standard material” and the GI50 was 0.38 µg/mL (≈ 0.753 µM).
Take `COC[C@H]1Oc2cc3ncnc(Nc4cccc(I)c4)c3cc2O[C@@H]1COC` [Example 45, (7,8-bismethoxymethyl[1,4]dioxano[2,3-g]quinazolin-4-yl)-(3-iodophenyl)amine]: the GI50 in the assay on A431 cancer cell stood at 1.59 µg/mL (≈ 3.22 µM).
The compound `COCC1COc2cc3ncnc(Nc4ccc(F)c(Cl)c4)c3cc2O1` (centres unmarked) [Example 17, (3-chloro-4-fluorophenyl)-(7-methoxymethyl-[1,4]-dioxano[2,3-g]quinazolin-4-yl)-amine] gave a negative-log IC50 (pIC50) in assay [1] of 7.01. Besides, in the assay with A431 cancer cell, the “inhibitory effect of cancer cell growth compared with standard material DP153035” value is “better inhibitory effect of cancer cell growth than the standard material” and the concentration for 50% growth inhibition (GI50) worked out at 0.6 µg/mL (≈ 1.6 µM).
